Data: ChEMBL document CHEMBL6182935, “Discovery of a Novel Silybin Derivative for the Treatment of Metabolic Dysfunction-Associated Steatohepatitis” (J Med Chem, 2025)
Activity calls are given as the source filed them. The calls are words filed in the database; no cut-off is given here.

Legend:
L02 [1] = assay: Anti-MASH activity in palmitate/oleate-stimulated human LO2 cells assessed as reduction in triglyceride level incubated for 24 hrs; type: functional, cell-based; conditions: dose 10-40 µM
L02 [2] = assay: Anti-MASH activity in palmitate/oleate-stimulated human LO2 cells assessed as reduction in lipid accumulation at 10 to 40 uM incubated for 24 hrs by Oil Red O staining assay; type: functional, cell-based; conditions: dose 10-40 µM
Hepatocyte = assay: Anti-MASH activity in palmitate/oleate-stimulated mouse primary hepatocytes assessed as reduction in lipid accumulation by Oil Red O staining assay; type: functional, cell-based
Rattus norvegicus = assay: Hepatoprotective activity in male Sprague-Dawley rat model of CCl4-induced ALI assessed as restoration of SOD level at 100 mg/kg, IG qd pretreated with compound for 7 days followed by CCl4 administration after 2 hrs post-compound treatment measured after 16 hrs post-CCl4 injection; type: functional, organism-based; conditions: time 186.0 hrs
Mus musculus [3] = assay: Anti-MASH activity in HFD-fed CCl4-treated male C57BL/6 mouse assessed as reversal of volume of liver at 150 mg/kg, po qd treated for 4 weeks; type: functional, organism-based
Mus musculus [4] = assay: Anti-MASH activity in HFD-fed CCl4-treated male C57BL/6 mouse assessed as reduction in hepatocyte ballooning in liver at 150 mg/kg, po qd treated for 4 weeks by H and E/Oil red O staining based analysis; type: functional, organism-based
Mus musculus [5] = assay: Anti-MASH activity in HFD-fed CCl4-treated male C57BL/6 mouse assessed as reduction in serum HDL cholesterol level at 150 mg/kg, po qd treated for 4 weeks; type: functional, organism-based
Mus musculus [6] = assay: Anti-MASH activity in HFD-fed CCl4-treated male C57BL/6 mouse assessed as restoration of liver SOD level at 150 mg/kg, po qd treated for 4 weeks; type: functional, organism-based
[7] = Oral bioavailability in overnight-fasted male Sprague-Dawley rat assessed as fold increase at 150 mg/kg measured up to 12 hrs by HPLC analysis relative to silybin; type: ADME, organism-based; conditions: in vivo

For `COc1cc([C@@H]2Oc3cc([C@H]4Oc5cc(O)cc(O)c5C(=O)[C@@H]4O)ccc3OC2CS)ccc1O` (some centres undefined), the Activity (L02 [1]) was “Dose-dependent-effect”, the Activity (L02 [2]) was “Active” and the Activity (Hepatocyte) was “Active”. For the same compound, the Activity (Rattus norvegicus) was “Active; Exhibited Better Efficacy Than Silybin”, the Activity (Mus musculus [3]) was “Active; Activity Better Than Silybin” and the Activity (Mus musculus [4]) was “Active; Activity Was Better Than Silybin”. For the same compound, the Activity (Mus musculus [5]) was “Active”, the Activity (Mus musculus [6]) was “Active” and the “fold change (FC)” value [7] was greater than 20.
